The conditions of data set [1]: cited from earlier work.
Data set [2] is described as follows: Effect of nafamostat on plasma oxycodone after oral KC-8 in rats. In kind it is in vivo. Particulars: nafamostat co-administered with an oxycodone or hydromorphone derivative. As for the experimental part: The drug nafamostat mesylate was added to the formulations containing the KC-8 oxycodone-derivative. In the examples described herein, the terms “nafamostat mesylate” and “nafamostat” are used interchangeably.
Formulations containing both KC-8 and optionally nafamostat were administered orally to rats. The KC-8 dose was 5 mg/kg and the nafamostat concentration was 0, 0.1, 0.5, or 1 mg/kg. Plasma concentrations of active oxycodone were measured at various time intervals over 24 hours after administration.
In contrast, additional nafamostat reduced the maximum oxycodone concentration to a peak of about 0.75 ng/ml at about 5 hours. The error bars represent one standard deviation.
In particular, the rats received 50 mg/kg of KC-8 and 0, 1, 5, or 10 mg/kg of nafamostat. With zero nafamostat, blood plasma concentration experienced a maximum of about 22 ng/ml at about 2 hours, wherein the concentration rapidly descended thereafter. In alignment with the data of FIG. 2, higher concentrations of nafamostat reduced the peak concentration to about 3 ng/ml at about 8 hours.

Data set [3] can be described thus: Blood hydromorphone after 1, 3, 6 or 10 pills of PF329 with or without nafamostat in rats. In kind it is in vivo. Particulars: rats, 1, 3, 6 or 10 PF329 pills containing nafamostat (FIG. 5). The source says: The rat experiments were repeated with a derivative of hydromorphone (referred to herein as PF329), which is another known pain medication. FIGS. 4 and 5 show the blood concentration of active hydromorphone (HM) after the administration of 1, 3, 6, or 10 pills, either without or with nafamostat.

Where two headings read alike, the source gives them in different places.

With `COc1ccc2c3c1O[C@H]1C(OC(=O)N(C)CC(C)(C)CNC(=O)[C@H](CCCNC(=N)N)NC(=O)CNC(=O)CC(=O)O)=CC[C@@]4(O)[C@@H](C2)N(C)CC[C@]314` [KC-8, N-1-[3-(oxycodone-6-enol-carbonyl-methyl-amino)-2,2-dimethyl-propylamine]-arginine-glycine-malonic acid], in data set [1] (previous SAD study, doses of up to 200 mg KC-8 (80 mg oxycodone)), the safety and tolerability result was “safe and well tolerated”.

In the case of `N=C(N)c1ccc2cc(OC(=O)c3ccc(N=C(N)N)cc3)ccc2c1` [nafamostat, 6-carbamimidoylnaphthalen-2-yl 4-(diaminomethyleneamino)benzoate], the “effect on maximum concentration of active drug in blood plasma” value in data set [2] is on record as “significantly reduced the maximum concentration of active drug in blood plasma”. Also, the safety and tolerability result in data set [1] (200 mg nafamostat, healthy volunteer SAD data) was “safe and well tolerated”. In addition, the “change of hydromorphone blood concentration on administering more pills” value in data set [3] is “little increase”.

Source of the values: US12636253B2, “Modified release compositions of nafamostat and methods of using same” (Ensysce Biosciences Inc., priority 2021, dated 2026).
